Test results from patent US20250388574A1, “HETEROCYCLIC COMPOUNDS AS TRIGGERING RECEPTOR EXPRESSED ON MYELOID CELLS 2 AGONISTS AND METHODS OF USE” (AMGEN INC., priority 2020, published 2025).

target: T1, hTREM2 (Homo sapiens, UniProt Q9NZC2); experiment: Phospho-Syk AlphaLisa assay in HEK293T-hTREM2 cells expressing human TREM2 and DAP12 (Example A2); format: cell-based; design: expressed in transfected cells; host or cells: HEK293T-hTREM2 cells; settings: HEK293 cells, Syk phosphorylation, Examples 276-283
Description: Measurement of TREM2 agonist potency was done using a HEK cell line expressing human TREM2 and DAP12 (HEK293T-hTREM2 cells). Binding of small molecules to, and activation of, TREM2 increases the phosphorylation of Syk. The resultant levels of Syk phosphorylation were measured using a commercial AlphaLisa reagent kit. To perform the assay, HEK-hTREM2 cells were plated at 14,000 cells per well in a 384 well plate, in 25 μL of complete growth media and incubated at 37° C., 5% CO2 for 20-24 hours. Prior to the assay, test compounds were diluted in the 384 well plates in assay buffer and allowed to equilibrate for 30 minutes. Growth media was removed from cell plates by inversion on blotting paper, and 25 μL of test compounds in assay buffer was added to cells. Cells were incubated for 45 minutes at room temperature. After 45 minutes, assay buffer was removed and 10 μL of lysis buffer was added. Plates were shaken for 20 minutes at 350 RPM at room temperature. After complete lysis, AlphaLisa reagents were added to the lysate, and fluorescence intensity was measured using a Perkin Elmer Envision plate reader. Intensities were used to generate a standard curve, and % activation was calculated. Curve fitting was performed using Prism v9 software, log(agonist) vs response—variable slope (four parameters), and EC50s were calculated from the curve fit.
The results presented in Table 11 have been generated with the in vitro assay described above for Examples 276-283. This assay may be used to test any of the compounds described herein to assess and characterize a compound's ability to act as an agonist of TREM2.

T1 sequence (Q9NZC2 19-230): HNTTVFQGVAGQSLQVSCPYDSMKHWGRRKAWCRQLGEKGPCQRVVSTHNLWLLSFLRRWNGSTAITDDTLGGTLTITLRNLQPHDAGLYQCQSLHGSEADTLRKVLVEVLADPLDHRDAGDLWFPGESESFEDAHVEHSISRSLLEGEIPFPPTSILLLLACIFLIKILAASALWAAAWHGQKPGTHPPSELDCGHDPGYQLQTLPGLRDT
T1 sequence (O43914 22-113 partner): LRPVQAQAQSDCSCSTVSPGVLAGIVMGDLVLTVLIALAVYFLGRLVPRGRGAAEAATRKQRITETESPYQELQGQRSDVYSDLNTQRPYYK

Compared with `Cc1cc(C2CN(c3cc4nc(C)n(C)c(=O)c4c(-c4ccc(C(F)(F)F)nc4)n3)CCO2)ccn1` (stereo not shown) [Example 280, 2,3-dimethyl-7-(2-(2-methylpyridin-4-yl)morpholino)-5-(6-(trifluoromethyl)pyridin-3-yl)pyrido[4,3-d]pyrimidin-4(3H)-one], `Cc1cc([C@H]2C[C@@H](c3cc4nc(C)n(C)c(=O)c4c(-c4ccc(C(F)(F)F)nc4)n3)CCO2)ccn1` [Example 277, 2,3-dimethyl-7-(2-(2-methylpyridin-4-yl)tetrahydro-2H-pyran-4-yl)-5-(6-(trifluoromethyl)pyridin-3-yl)pyrido[4,3-d]pyrimidin-4(3H)-one] is higher in EC50: under 50 nM for the first, 50 to 500 nM for the second.

Compared with `COc1cc(C2CN(c3cc4nc(C)n(C)c(=O)c4c(C45CC(C(F)(F)F)(C4)C5)n3)CCO2)ccn1` (stereo not shown) [Example 283, 7-(2-(2-methoxypyridin-4-yl)morpholino)-2,3-dimethyl-5-(3-(trifluoromethyl)bicyclo[1.1.1]pentan-1-yl)pyrido[4,3-d]pyrimidin-4(3H)-one], `Cc1cc(C2CN(c3cc4nc(C)n(C)c(=O)c4c(C45CC(C(F)(F)F)(C4)C5)n3)CCO2)ccn1` (stereo not shown) [Example 282, 2,3-dimethyl-7-(2-(2-methylpyridin-4-yl)morpholino)-5-(3-(trifluoromethyl)bicyclo[1.1.1]pentan-1-yl)pyrido[4,3-d]pyrimidin-4(3H)-one] is lower in EC50: 50 to 500 nM for the first, under 50 nM for the second.

Compared with `Cc1cc([C@H]2C[C@@H](c3cc4nc(C)n(C)c(=O)c4c(C45CC(C(F)(F)F)(C4)C5)n3)CCO2)ccn1` (racemic) [Example 281, 2,3-dimethyl-7-(2-(2-methylpyridin-4-yl)tetrahydro-2H-pyran-4-yl)-5-(3-(trifluoromethyl)bicyclo[1.1.1]pentan-1-yl)pyrido[4,3-d]pyrimidin-4(3H)-one], `Cc1cc([C@H]2C[C@@H](c3cc4nc(C)n(C)c(=O)c4c(-c4ccc(F)cc4F)n3)CCO2)ccn1` (racemic) [Example 278, 5-(2,4-difluorophenyl)-2,3-dimethyl-7-(2-(2-methylpyridin-4-yl)tetrahydro-2H-pyran-4-yl)pyrido[4,3-d]pyrimidin-4(3H)-one] is higher in EC50: under 50 nM for the first, 50 to 500 nM for the second.

`Cc1cc(C2CN(c3cc4nc(C)n(C)c(=O)c4c(-c4ccc(F)cc4F)n3)CCO2)ccn1` (stereo not shown) [Example 276, 5-(2,4-difluorophenyl)-2,3-dimethyl-7-(2-(2-methylpyridin-4-yl)morpholino)pyrido[4,3-d]pyrimidin-4(3H)-one] and `COc1cc(C2CN(c3cc4nc(C)n(C)c(=O)c4c(-c4ccc(F)cc4F)n3)CCO2)ccn1` (stereo not shown) [Example 279, 5-(2,4-difluorophenyl)-7-(2-(2-methoxypyridin-4-yl)morpholino)-2,3-dimethylpyrido[4,3-d]pyrimidin-4(3H)-one] cannot be ordered by EC50: under 50 nM for the first, under 50 nM for the second.

target: T1, hTREM2; experiment: Phospho-Syk AlphaScreen/AlphaLISA assay in TREM2 and DAP12 overexpressing HEK293 cells (Example A1); format: cell-based; design: expressed in transfected cells; settings: HEK293 cells
In short: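 Single-cell-cloned HEK293 stably overexpressing TREM2 and DAP12, plated 20,000 cells/well for 20 h, then exposed to compounds (1% DMSO) 45 min at room temperature. Lysates probed for phospho-Syk by AlphaLISA sandwich (anti-pSyk, biotinylated anti-Syk); signal normalized to percent of control (100 nM anti-TREM2 antibody vs isotype) and fitted by 4-parameter logistic.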

With `CCn1c(C)nc2cc(N3CCO[C@@H](c4noc(C)n4)C3)nc(-c3ccc(Cl)cc3F)c2c1=O` [Example 148, 5-(4-chloro-2-fluorophenyl)-3-ethyl-2-methyl-7-((2R)-2-(5-methyl-1,2,4-oxadiazol-3-yl)-4-morpholinyl)pyrido[4,3-d]pyrimidin-4(3H)-one] the Emax was “++++ (Emax>300)”.

same assay, conditions: HEK293 cells, read-out: hTREM2 EC50

`CCn1c(C)nc2cc(N3CCO[C@@H](c4noc(C)n4)C3)nc(-c3ccc(Cl)cc3F)c2c1=O` [Example 148, 5-(4-chloro-2-fluorophenyl)-3-ethyl-2-methyl-7-((2R)-2-(5-methyl-1,2,4-oxadiazol-3-yl)-4-morpholinyl)pyrido[4,3-d]pyrimidin-4(3H)-one] gave an EC50 of 3 to 100 µM.
